{"source": "patent US20150224164A1", "about": "“TREATMENT OF AUTISM SPECTRUM DISORDERS USING GLYCYL-L-2-METHYLPROLYL-L-GLUMATIC ACID” (Neuren Pharmaceuticals Limited, priority 2013, published 2015)", "key": {"fmr1 knockout mice [1]": {"tested_on": "fmr1 knockout mice", "experiment": "Species typical behaviors: marble burying and nest building", "assay_type": "in vivo, mouse", "settings": "100 mg/kg i.p. 28 days"}, "MeCP2-/y mice": {"tested_on": "MeCP2-/y mice", "experiment": "Life span (Example 10)", "assay_type": "in vivo, mouse", "settings": "20 mg/kg i.p. daily from P15; vs MeCP2 KO littermates", "experimental": "For the survival measurements, the nocturnal activity analysis and the immunoblot analysis, G-2-MePE (synthesised Albany Molecular Research Inc. (Albany, N.Y.) and supplied by Neuren Pharmaceuticals Limited) is administered daily via intra-peritoneal injections (20 mg/kg, vehicle=saline, 0.01% BSA). The treatment starts at P15 and is maintained throughout the course of the experiments. For intracellular physiology experiments, the mice are injected daily with G-2-MePE (20 mg/kg body weight, vehicle=saline, 0.01% BSA) for 2 weeks, from P15 to P28-P32 when they are used for acute slice preparation. For optical imaging experiments, mice are injected with G-2-MePE (20 mg/kg body weight, vehicle=saline, 0.01% BSA) daily from the day of the lid suture to the day of imaging."}, "fmr1 knockout mice [2]": {"tested_on": "fmr1 knockout mice", "experiment": "Open field test, fmr1 knockout mice", "assay_type": "in vivo, mouse", "settings": "100 mg/kg i.p. 28 days", "experimental": "1. fmr1 KO+Vehicle (saline) 2. Wt+Vehicle (saline) 3. fmr1 KO+G-2-MePE (100 mg/kg in saline) 4. Wt+G-2-MePE (100 mg/kg in saline).\n(§1) G-2-MePE was administered at the dose of 100 mg/kg i.p. in 0.1 ml saline, once daily for 28 days. Vehicle-treated animals were injected with 0.1 ml saline daily for 28 days. Thereafter, drug or vehicle treatments were stopped and animals were tested on successive days until all tests were completed. Finally, the animals were sacrificed for determining expression of pAkt and pERK\nThe open field is a grey PVC enclosed arena 50×30 cm divided into 10 cm squares. Mice were brought to the experimental room 5-20 min before testing. A mouse was placed into a corner square facing the corner and observed for 3 min. The number of squares entered (whole body) and rears (both front paws off the ground, but not as part of grooming) were counted. The latency to the first rearing (rear) was also noted. The movement of the mouse around the field was recorded with a video tracking device for 300 s (vNT4.0, Viewpoint). The latency for the mouse to enter the brightest, central part of the field total time spent in this central region, and total activity (in terms of path length in centimeters), were recorded in each trial, the initial exposure, 10 min after the initial exposure and 24 h after the initial exposure.\nDuring exposure to the open field chamber mice habituated to the environment and thus explored less, decreasing the amount movement shown over time. Movement and rearing were recorded during the 3 exposures. Failures to reduce locomotion or rearing at 10 minutes and 24 hours indicated deficits in short and long term memory, respectively."}, "[3]": {"tested_on": "subjects with an Autism Spectrum Disorder", "experiment": "Placebo-controlled crossover study in subjects with Autism Spectrum Disorder (Example 16)", "assay_type": "in vivo, human", "excerpt": "To determine whether G-2-MePE can treat symptoms of ASD, we carry out a study in human beings with ASD. Twenty subjects with an Autism Spectrum Disorder are recruited. Subjects are male and aged between 16 and 65 years (Mean=18.1 SD=3.4). All subjects have an IQ>60 and strict DSM-IV-TR diagnosis of Autistic Disorder or Asperger Disorder. Subjects also meet criteria for an Autism Spectrum Disorder according the ADI-R and ADOS-G instruments, and fulfill the proposed DSM-V criteria for and Autism Spectrum Disorder. Subjects are instructed that concomitant medications are to be stable for at least six weeks prior to study. Subjects receiving medication to treat signs of inattention are tested in the morning and instructed to take their medication in the afternoon. Subjects better treated with atypical anti-psychotic medications indicated for autism are excluded. Subjects are screened for known genetic disorders including and those with Fragile X Syndrome or tuberous sclerosis excluded. Subjects with uncontrolled epilepsy are excluded. The study is a double blind placebo-controlled crossover study with three phases. Subjects enter each phase of the crossover in a randomized order. In the test phases, subjects receive either placebo, 10 mg/kg T.I.D oral G-2-MePE for five days, or 30 mg/kg T.I.D. oral G-2-MePE. Each phase of the crossover is separated by a washout period of fourteen days. Subjects are tested at baseline using the following instruments: Wechsler IQ, Abberant Behavior Checklist Community Edition (ABC), […], Yale-Brown Obsessive Compulsive Scale (YBOCS) compulsion subscale, Social Responsiveness Scale (SRS), Clinical Global Impression of Severity (CGI-S) and their […] complete the Caregiver Strain Questionnaire (CSQ). Subjects are administered two tasks-the Reading the Mind in the Eyes Test-Revised (RMET) and an Eye Tracking (ET) task, as well as Clinical Global Impression of Improvement (CGI-I). Tasks commence two hours following administration of placebo or either dose of G-2-MePE. The RMET is a computer based task that assesses one's ability to read emotions from the eyes of subtle affective facial expressions and is a widely used test of emotion recognition in patients with autism (2001). Importantly, the RMET is capable of detecting improvement with even a single dose of a pharmacological agent (Guastella et al., 2010). Eye tracking issues are characteristic of patients with autism who spend less time looking at the eyes of photographs of human faces. Again, a single administration of a pharmacologic intervention can ameliorate eye tracking deficits in autism ([…] et al, 2010). Adverse events are also recorded using standard safety measures. Statistically, the effect of treatment with G-2-MePE is analysed by conducting a repeated analysis of covariance (ANCOVA) on the effect of treatment on change from baseline scores."}, "fmr1 knockout mice [4]": {"tested_on": "fmr1 knockout mice", "experiment": "Successive alleys test, fmr1 knockout mice", "assay_type": "in vivo, mouse", "settings": "100 mg/kg i.p. 28 days", "experimental": "as §1\nThe successive alleys test was used to assess the effects of G-2-MePE on anxiety in the fmr1 KO mice. The apparatus consists of four successive, increasingly anxiogenic, linearly connected alleys (each succeeding alley is painted a lighter colour, has lower walls and/or is narrower than the previous alley). Animals were placed at the closed end of alley 1, facing the end wall. The latency to first enter each alley, the amount of time spent in each alley, and the number of entries into each alley was recorded during a total test time of 300 s."}}, "note": "Entries after “also recorded” stand apart in the source; their conditions may differ. Where a SMILES comes first, the peptide text is derived from it."}
{"smiles": "C[C@@]1(C(=O)N[C@@H](CCC(=O)O)C(=O)O)CCCN1C(=O)CN", "note": "[Example G-2-MePE, Glycyl-L-2-methylprolyl-L-glutamic acid] (HELM PEPTIDE1{G.[C[C@@]1(C(=O)[*:2])CCCN1[*:1]].E}$$$$V2.0)", "values": [{"measurement": "marble burying behavior", "setting": "fmr1 knockout mice [1]; fmr1 KO", "result": "normalized marble burying behavior"}, {"measurement": "nest building behavior", "setting": "fmr1 knockout mice [1]; fmr1 KO", "result": "increased both marble burying and nest building behaviors"}, {"measurement": "marble burying", "setting": "fmr1 knockout mice [1]; wild-type mice", "result": "no significant effect"}, {"measurement": "increase in life expectancy (0.5 probability survival rate)", "setting": "MeCP2-/y mice", "result": "~50", "unit": "%"}, {"measurement": "rearing activity", "setting": "fmr1 knockout mice [2]; fmr1 KO mice", "result": "significantly reduced rearing activity"}, {"measurement": "movement in the open field", "setting": "fmr1 knockout mice [2]; fmr1 knockout mice, 2nd and 3rd trials", "result": "significantly reduce movement"}, {"measurement": "rearing activity", "setting": "fmr1 knockout mice [2]; wild-type mice", "result": "no effect"}, {"measurement": "percent correct responses on the RMET", "setting": "[3]; 30 mg/kg T.I.D. oral", "result": "increases the percent correct responses"}, {"measurement": "Serious Adverse Events", "setting": "[3]; 10 or 30 mg/kg T.I.D. oral", "result": "No Serious Adverse Events"}, {"measurement": "adverse events / tolerability", "setting": "[3]; 10 or 30 mg/kg T.I.D. oral", "result": "no more adverse events than were present during treatment with placebo; also recorded: well tolerated"}, {"measurement": "performance of the RMET test, overall", "setting": "[3]; human, in vivo", "result": "significant overall improvement"}, {"measurement": "time spent looking at the eye region in the ET test", "setting": "[3]; human, in vivo", "result": "significant overall improvement"}, {"measurement": "pattern of time spent in successive alleys", "setting": "fmr1 knockout mice [4]", "result": "reinstated the normal pattern of behavior"}]}
